Assay results: patent US7223835B2, “VEGF peptides and their use for inhibiting angiogenesis” (Ark Therapeutics Ltd., priority 2000, dated 2007)

Test system: human endothelial cell-derived tubule formation
Test: In vitro angiogenesis assay, endothelial cell-derived tubule formation in co-culture with human fibroblasts
Assay type: cell-based
Conditions: tubule formation at day 11, CD31 immunostaining, with and without VEGF; FIG. 4
Description: An in vitro angiogenesis assay based on human endothelial cell-derived tubule formation (TCS Biologicals) in a co-culture with human fibroblasts was used to investigate the effects of selected peptides on angiogenesis. The peptides, together with VEGF and other factors were added at the start of the experiment and at each medium change at days 4, 7 and 9. At day 11, the cultures were fixed with 70% ethanol for 30 min at room temperature and subsequently subjected to immunostaining for the endothelial cell adhesion molecule CD31. Fixed cells were incubated with the primary antibody (mouse anti-human CD31) for 1 h at 37° C., washed 3 times in blocking buffer (PBS containing 1% BSA), and then incubated with the secondary antibody (goat anti-mouse IgG conjugated to alkaline phosphatase) for 1 h at 37° C. After 3 washes in distilled water, the cells were finally incubated with the substrate solution for 10 min at 37° C. Immunostaining was observed and photographed using an inverted Zeiss microscope (Axiovert CFL25) fitted with a ×4 objective lens. […] A, VEGF released from untreated control during 11 days, measured by specific immunoassay; B, untreated control; C, VEGF; D, peptide 121–132; E, VEGF in the presence of peptide 121–132; F, peptide 125–136; and G, VEGF in the presence of peptide 125–136.

“RKRKKSR [SEQ ID NO:21, 7-mer truncated derivative of the 12-mer V125–136 protein]” was tested, and the “inhibition of angiogenesis (Chalkley count), potency compared with the 12-mer” value was “inhibits angiogenesis with similar potency to the 12-mer”.
